# From patent US11464228B2 (priority 2020, dated 2022)
# “Also recorded” adds a separate entry of the source.
# Legend:
# [1] = system: Microcystis aeruginosa (FACHB-905); assay: Algicidal effect on toxin-producing Microcystis aeruginosa, OD680 over 5 d in light incubator; type: cell-based
# Description: (§1) Microcystis aeruginosa is cultured in a light incubator (GZX-250BS-III), provided by Shanghai CIMO Medical Instrument Co., Ltd., with a light intensity of 3000 LX, a light-dark time ratio of 12:12, and a temperature setting of 25° C. The four kinds of bacteria are all cultured in a biochemical incubator (SPX-150), provided by Shanghai Yuejin Medical Instruments Co., Ltd., with a temperature setting of 37° C.
# (§2) The concentration of Microcystis aeruginosa and other bacteria is measured with an ultraviolet spectrophotometer (Shimadzu, UV-2700), and the concentration is characterized by the optical density of liquid at 680 nm and 600 nm, and recorded as OD680 and OD600, respectively.
# (§3) 100 mL of BG-11 medium was added to a 150 mL Erlenmeyer flasks, and was inoculated with cyanobacteria of 0.2 calculated as OD680 under aseptic conditions. Different volumes of the AA stock solution were added to the Erlenmeyer flasks to make sure that the dosage of AA was 5 mg/L, 7 mg/L, 10 mg/L, 15 mg/L and 20 mg/L in different Erlenmeyer flasks. At the same time, a control experiment (Control) without AA was established. The cyanobacteria were put in a light incubator for culture. Considering the existing reports that the most suitable growth light for cyanobacteria was 2,000-4,000 LX (see “Freshwater Algae Culture Collection at the Institute of Hydrobiology”, website “http://algae.ihb.ac.cn/Products/ProductDetail.aspx?product=523”, and the literature “The effect of light on the growth and chlorophyll fluorescence of Chlorella and Microcystis aeruginosa”, Journal of Xi'an University of Arts and Science, 2019, 22, 73-77”), 3,000 LX was selected as the light intensity in the present example. At the beginning of the incubation and after 0.5 d, 1 d, 1.5 d, 2 d, 3 d, 4 d and 5 d of the incubation, samples were taken to detect the OD680 under aseptic conditions.
# [2] = 25° C.; cited from earlier work
# [3] = system: Escherichia coli; assay: Bacterial growth with AA, OD600 after 24 h; type: cell-based; conditions: for growth rate (OD600) / effect on growth (OD600): 24 h; for effect on growth (OD600): 6-768 mg/L, vs control
# Description: (§4) The bacteria used in the following examples are Escherichia coli, Salmonella, Bacillus subtilis and Staphylococcus aureus, all of which are provided by the School of Life Sciences, Nanjing University. The bacteria are cultured with an LB nutrient broth. The main components of the LB nutrient broth include: tryptone 10.0 g/L, yeast extract 5.0 g/L, and sodium chloride 10.0 g/L.
# as §1, §2
# (§5) 4 mL of nutrient broth was added to 9 test tubes under aseptic conditions, and the test tubes were numbered 1 to 9. A broth stock solution containing 1,536 mg/L AA was prepared, and 4 mL of which was taken and added to the No. 9 test tube. After the solution in the No. 9 test tube was uniformly mixed, 4 mL of the mixed solution in the No. 9 test tube was taken and added to the No. 8 test tube. By analogy, dilution was performed by the stepwise dilution method to the No. 2 test tube, and after uniform mixing, 4 mL of the solution in the No. 2 test tube was taken and discarded. The No. 1 test tube without AA was taken as the blank group (Control). The final concentrations of AA in each test tube from No. 1 to No. 9 were 0 mg/L, 6 mg/L, 12 mg/L, 24 mg/L, 48 mg/L, 96 mg/L, 192 mg/L, 384 mg/L, and 768 mg/L, respectively. A suspension of the bacteria was diluted with nutrient broth to an OD600 of 0.05. 100 μL of the diluted suspension was added to each of the 9 test tubes, and the test tubes were sealed with sterilized sealing films. After completing the above operations, the bacterial solutions were put into a biochemical incubator, and the OD600 in each test tube was measured after incubation for 24 h.
# [4] = system: Staphylococcus aureus; assay: Bacterial growth with AA, OD600 after 24 h; type: cell-based
# Description: as §4, §1, §2, §5
# [5] = system: Salmonella; assay: Bacterial growth with AA, OD600 after 24 h; type: cell-based
# Description: as §4, §1, §2, §5
# [6] = system: Bacillus subtilis; assay: Bacterial growth with AA, OD600 after 24 h; type: cell-based; conditions: for effect on growth (OD600): 6-768 mg/L, 24 h, vs control
# Description: as §4, §1, §2, §5
# [7] = system: Microcystis aeruginosa; assay: Algicidal effect at different initial densities of Microcystis aeruginosa, OD680; type: cell-based; conditions: 15 mg/L; initial OD680 0.11 to 1.0 (up to 2.59×10^7 cells/mL); 5 d
# Description: (§6) Unless otherwise specified, the Microcystis aeruginosa species used in the following examples is the high-toxin-producing strain FACHB-905.
# as §2
# 100 mL of BG-11 medium was added to 150 mL Erlenmeyer flasks, and was inoculated with cyanobacteria to finally obtain solutions with the OD680 of 0.11, 0.27, 0.62 and 1.0, respectively, under aseptic conditions. A certain volume of the AA stock solution was added to the Erlenmeyer flasks, so that the dosage of AA is 15 mg/L. At the same time, the control experiments (Control) without AA were established for different cyanobacteria densities. The cyanobacteria were put in a light incubator for culture. At the beginning of the incubation and after 1 d, 2 d, 3 d, 4 d, and 5 d of the incubation, samples were taken to detect the OD680 under aseptic conditions.
# [8] = system: Daphnia magna; conditions: cited from earlier work
# [9] = system: Microcystis aeruginosa; assay: Actual photochemical quantum yield of the photosystem (Water-PAM); type: cell-based
# Description: as §6
# The actual photochemical quantum yield is measured using a Water-PAM phytoplankton analyzer (Walz), and 2.5 mL of algae culture is taken to measure Fm′ and Fs after light adaptation. The calculation formula for the actual photochemical quantum yield is as follows: ϕe=ΔF/Fm′=(Fm′−Fs)/Fm′ wherein ϕe is the actual photochemical quantum yield, and Fm′ and Fs are the maximum chlorophyll fluorescence and the stable chlorophyll fluorescence of the algae culture after light adaptation, respectively (“Effects of different algaecides on the photosynthetic capacity, cell integrity and microcystin-LR release of Microcystis aeruginosa”, Sci. Total Environ. 2013, 463, 111-119).
# 100 mL of BG-11 medium was added to 150 mL Erlenmeyer flasks, and was inoculated with cyanobacteria to an initial OD680 of 0.2 under aseptic conditions. Different volumes of the AA stock solution were added to the Erlenmeyer flasks, so that the dosage of AA was 7 mg/L, 10 mg/L and 15 mg/L, respectively. At the same time, a control experiment (Control) without AA was established. […] At the beginning of the incubation and after 0.5 d, 1 d, 1.5 d, 2 d, 3 d, 4 d, and 5 d of the incubation, samples were taken to detect the chlorophyll fluorescence parameters under aseptic conditions.
# [10] = system: Microcystis aeruginosa (FACHB-469); assay: Algicidal effect on non-toxic Microcystis aeruginosa, OD680 over 5 d in light incubator; type: cell-based
# Description: as §1, §2, §3
# Except for the different cyanobacteria strain, other operations are the same as those in step (1).
# [11] = pH 6.4; cited from earlier work
# [12] = system: Microcystis aeruginosa; assay: Comparison of algaecides, inhibition rate from chlorophyll a content; type: cell-based; conditions: incubated 3 days; 15 mg/L
# Description: as §6
# The measurement of chlorophyll a refers to the method in the literature (“Potent removal of cyanobacteria with controlled release of toxic secondary metabolites by a titanium xerogel coagulant”, Water Res. 2018, 128, 341-349). Specifically, collected algae culture is filtered with a 0.7 μm GF/F glass filter membrane (Whatman). The collected cells are frozen overnight in a refrigerator at −4° C. Then 90% acetone is added for overnight extraction. The extract is centrifuged in a high-speed refrigerated centrifuge (Tianuoda, CT14RD) at 10,000 rpm and 4° C. for 10 min to collect the supernatant, and the absorbance is detected at 630 nm, 663 nm, 645 nm and 750 nm. The formula for calculating the content of chlorophyll a is as follows:
# [formula] wherein A663, A750, A645 and A750 are the absorbance of the supernatant at 663 nm, 750 nm, 645 nm and 750 nm, respectively. Ve is the volume of an extracted solution, Vs is the volume of a filtered solution, and δ is the optical path of a cuvette. The calculation formula for the inhibition rate of an algaecide on Microcystis aeruginosa is as follows: […]
# 300 mL of BG-11 medium was added to 500 mL Erlenmeyer flasks, and was inoculated with cyanobacteria of 0.2 calculated as OD680 under aseptic conditions. […]
# [13] = system: Microcystis aeruginosa; assay: Growth inhibition under natural light (sunlit window sill), OD680; type: cell-based; conditions: under sunlight, within 5 days
# Description: as §6, §2
# 100 mL of BG-11 medium was added to 150 mL Erlenmeyer flasks, and was inoculated with cyanobacteria to an initial OD680 of 0.2 under aseptic conditions. A certain volume of the AA stock solution was added to the Erlenmeyer flasks, so that the dosage of AA was 10 mg/L or 20 mg/L. At the same time, a control experiment (Control) without AA was established. The cyanobacteria were placed at a sunlit window sill for incubation. At the beginning of the incubation and after 0.5 d, 1 d, 1.5 d, 2 d, 3 d, 4 d, and 5 d of the incubation, samples were taken to detect the OD680 under aseptic conditions.
# [14] = concentration less than 738 mg/L
compound,measurement,setting,value
"CC(=O)CC(C)=O [AA, acetylacetone]",effect on growth (OD680),"[1]; 5 mg/L, compared to the control group",no significant effect
same,effect on growth (OD680),[1]; 7 mg/L,"inhibited, but the growth curve of which is still increase"
same,algicidal effect on growth (OD680),"[1]; 10 mg/L, within 5 d, weaker than 15 mg/L",continued to show algicidal effect
same,growth curve (OD680),"[1]; 20 mg/L, compared with 15 mg/L AA",no significant change in the growth curve
same,optical density (OD680),"[1]; AA concentration greater than 15 mg/L, starting from day 1.5",began to decrease
same,effect on growth (OD680),"[1]; first day of addition, 5-20 mg/L",no significant effect
same,Henry's law constant,[2],2.35×10^−6 atm m^3/mol
same,growth rate (OD600),[3]; 12 mg/L,slightly lower than that of the control group
same,effect on growth (OD600),[3],basically had no influence on the growth
same,effect on growth (OD600),[3]; listed as acetylacetone,no inhibitory effect
same,growth rate (OD600),[3]; concentration increased to 24 mg/L,increased slightly
same,killing of bacteria,[3]; [14],will not kill
same,effect on growth (OD600),"[4]; 6-768 mg/L, 24 h, vs control",basically had no influence on the growth
same,effect on growth (OD600),"[4]; 6-768 mg/L, 24 h, vs control, listed as acetylacetone",no inhibitory effect
same,killing of bacteria,[4]; [14],will not kill
same,effect on growth (OD600),[4]; concentration of up to 768 mg/L,can still promote the growth
same,growth rate (OD600),"[5]; 768 mg/L, still a growth trend within 24 h",decreased
same,growth rate (OD600),"[5]; 6-384 mg/L, compared with the control group",increased
same,effect on growth (OD600),"[5]; 6-768 mg/L, 24 h, vs control",no inhibitory effect; also recorded: basically had no influence on the growth
same,killing of bacteria,[5]; [14],will not kill
same,effect on growth (OD600),[6],basically had no influence on the growth
same,effect on growth (OD600),[6]; listed as acetylacetone,no inhibitory effect
same,killing of bacteria,[6]; [14],will not kill
same,algicidal performance (OD680),[7],excellent algicidal performance
same,median lethal dose,[8],higher than 50 mg/L
same,actual photochemical quantum yield,"[9]; after 1 day of incubation, 7, 10, 15 mg/L",significantly inhibited
same,actual photochemical quantum yield,"[9]; second day of growth, AA of greater than 7 mg/L",0
same,algicidal effect on growth (OD680),[10]; 5 mg/L,still showed algicidal effect
same,algicidal effect on growth (OD680),[10]; 7 mg/L,a certain algicidal effect
same,growth curve (OD680),"[10]; 20 mg/L, compared with 10 mg/L and 15 mg/L AA",did not change significantly
same,effect on growth (OD680),[10]; dosage greater than 10 mg/L,significantly inhibited
same,effect on growth (OD680),[10]; on day 1.5,inhibited
same,aquatic oxidation rate,[11],9.9e-09 M⁻¹ s⁻¹
same,inhibition rate on Microcystis aeruginosa (chlorophyll a),[12],higher than all other algaecides
same,effect on growth (OD680),[13]; 10 mg/L,significantly inhibited
same,effect on growth (OD680),[13]; 20 mg/L,significantly inhibited
"O=C(O)c1cc(O)c(O)c(O)c1 [gallic acid, reference compound]",inhibition rate on Microcystis aeruginosa (chlorophyll a),[12],close to that of AA
